What was measured:
Format in all cases: cell-based, human
high-fat HepG2 cells [1] = test: Total cholesterol (TC) content in the cells, TC kit; conditions: for level of TC in a high fat cell: FIGS. 4A, 5A; for level of TC, compared with control group and low dose group: medium and high doses
Description: (§1) 2. The culture, model establishment and experimental steps of the cells were operated according to the above steps. The anthocyanin compound mother liquor was diluted to 0, 0.1, 1, 10, 50, and 100 μM to treat the high-fat HepG2 cells, respectively.
(§2) 3. The culture solution was pipetted off, gently washed with PBS for 3 times, and added with trypsin to digest the cells for 1 min The cell suspension was pipetted into a 1.5 mL sterile EP tube, centrifuged at 1000 rpm for 10 minutes, the supernatant was discarded, the pellet was added with an appropriate amount of PBS, ultrasonically crushed under the condition of an ice-water bath, and the prepared homogenate was not centrifuged and was ready for determination.
The total cholesterol (TC) content in the cells was determined according to the operating instructions of a TC kit. The protein content in the cells was determined by a BCA protein concentration kit, and the total cholesterol content in the cells was calibrated with the protein content.

HepG2 cells = test: MTT cell viability experiment, effect of treatment time (oleic acid NAFLD cell model); conditions: for cell viability among several other groups of treatment time: other treatment times (0, 12, 24, 48 h); for cell viability: treated for 6 h, FIG. 3; for cytotoxicity with the increase in time: treatment up to 48 h
Description: The HepG2 cells were seeded into a 96-well culture plate at 1×10^4 cells per well, incubated in a DMEM culture medium containing 10% fetal bovine serum for 12 h until complete confluence of the cells, and then the culture medium was replaced by respective concentrations of 0, 0.5, 1, 1.5, 2, 2.5, 3, 3.5, 4 mM of oleic acid formulated with a serum-free culture medium to treat the cells for 0, 24, 48, and 72 hours, with 4 replicate wells being set for each concentration. After the completion of the incubation, 10 μL of a freshly prepared MTT solution at a final concentration of 5 mg/mL was added into each well and the culture was continued for 4 h. Then, the liquid in the culture well was pipetted off to terminate the reaction. Each well was added with 100 μL of DMSO, and shaken fully on a plate shaker for […] such that the crystalline was fully dissolved, and an A490 absorbance was measured on a microplate reader. The cell proliferation viability was calculated according to the following formula.
Cell proliferation viability (%)=(the OD of drug group/the OD of blank group)×100%
1. The culture, model establishment and experimental steps of the cells were operated according to 1.2.1. When the cells were cultured to the confluence of 70%, the cells were treated with 0.5 mM for 24 h to establish a cell model of nonalcoholic fatty liver disease. The anthocyanin compound mother liquor was diluted to 10 μM to treat the cells for 0, 6, 12, 24, and 48 h. The MTT cell proliferation viability experiment determined the optimal dosing time.

high-fat HepG2 cells [2] = test: Triglyceride (TG) content of the cells, TG kit; conditions: for level of TG in a high fat cell: FIGS. 4B, 5B; for level of TG, compared with control group and low dose group: medium and high doses
Description: as §1, §2
The intracellular triglyceride content was determined according to the operating instructions of a triglyceride (TG) kit. The protein content in the cells was determined by a BCA protein concentration kit, and the triglyceride content in the cells was calibrated with the protein content.

high-fat HepG2 cells [3] = test: Cellular aspartate aminotransferase (AST) content, AST kit; conditions: for level of AST in a high fat cell: FIGS. 4D, 5D; for level of AST, compared with control group and low dose group: medium and high doses
Description: as §1, §2
The intracellular aspartate aminotransferase (AST) content was determined according to the operating instructions of an AST kit. 1.2.4 Effect of petunidin-3-O-β-D glucoside and malvidin-3-O-β-D glucose on autophagy of HepG2 cells

p62 = test: Western blotting, protein expression in oleic acid induced HepG2 cells; conditions: high dose group
Description: (§3) The culture, model establishment and drug treatment manners of the cells were operated according to 1.2.3. After completion, cells were collected, cytoplasmic proteins were extracted, and protein electrophoresis was conducted after quantification. Particularly the following methods were used:
(§4) When the cell confluence reached 70%, 0.5 mM oleic acid was added to treat the cells for 24 h. After completion, the cells were collected and the cytoplasmic protein was extracted, and the protein electrophoresis was conducted after quantification. The electrophoresis method was as follows:
(§5) After cell culture was completed, the culture plate was taken out, the culture medium in the well was discarded, the pellet was washed twice with PBS, placed onto an ice bath, and added with 100 μL of a protein lysis buffer (RIPA) (PMSF was added into the cell lysis buffer at 1:1000 within few minutes before the use, with a final concentration of 1 mM) per well. After the cells were lysed for about […], the cells were scraped off with a cell scraper, pipetted into a 1.5 mL centrifuge tube (which could be crushed with an ultrasonic cell disruptor for 3-5 times), then centrifuged at 12,000 rpm under 4° C. for 15-20 mM. The supernatant was taken and transferred into a new centrifuge tube for protein quantification or storage at −80° C.
(§6) Theprotein content was determined by a BCA method, and the operation method was carried out according to the instructions of the kit. After the protein concentration was measured, the protein sample was added with a 5× loading buffer and mixed uniformly at 1:4, then subjected to water bath at 100° C. for […] (entangling with a sealing film to prevent bouncing off), and stored at 4° C.
(§7) The specific operation method of protein electrophoresis was in accordance with the relevant references. Since each of the molecular weight of the target proteins was within 10-80 KDa except for FASN (the separation gel was prepared according to the following table), the separation gel concentration was selected to be 10%, and the concentration of the FASN protein separation gel was selected to be 6%.
(§8) A spacer gel was formulated according to the following table, and sample loading was conducted. After completion, electrophoresis should be conducted as soon as possible, where concentration was conducted at 80 v for 30 min, and then electrophoresis was conducted at 120 v until the front edge ran to the lower edge of the separation gel, and the electrophoresis was stopped.
3. […]

Bcl-1 = test: as above; conditions: high dose group
Description: as §3, §4, §5, §6, §7, §8
3. […]

high-fat HepG2 cells [4] = test: Cellular alanine aminotransferase (ALT) content, ALT kit; conditions: for level of ALT in a high fat cell: FIGS. 4C, 5C; for level of ALT, compared with control group and low dose group: medium and high doses
Description: as §1, §2
The intracellular alanine aminotransferase (ALT) content was determined according to the operating instructions of an ALT kit.

| SMILES | level of TC in a high fat cell (high-fat HepG2 cells [1]) | level of TC, compared with control group and low dose group (high-fat HepG2 cells [1]) | cell viability among several other groups of treatment time (HepG2 cells) | cell viability (HepG2 cells) | cytotoxicity with the increase in time (HepG2 cells) | level of TG in a high fat cell (high-fat HepG2 cells [2]) | level of TG, compared with control group and low dose group (high-fat HepG2 cells [2]) | level of AST in a high fat cell (high-fat HepG2 cells [3]) | level of AST, compared with control group and low dose group (high-fat HepG2 cells [3]) | protein expression of p62 (p62) | protein expression of Bcl-1 (Bcl-1) | level of ALT in a high fat cell (high-fat HepG2 cells [4]) | level of ALT, compared with control group and low dose group (high-fat HepG2 cells [4]) |
| --- | --- | --- | --- | --- | --- | --- | --- | --- | --- | --- | --- | --- | --- |
| COc1cc(-c2[o+]c3cc(O)cc(O)c3cc2O[C@@H]2O[C@H](CO)[C@@H](O)[C@H](O)[C@H]2O)cc(OC)c1O [malvidin-3-O-β-D glucoside] | reduce | very significant reduction | no significant difference | significantly increased | not cytotoxic | reduce | very significant reduction | reduce | very significant reduction | inhibition trend | inhibition trend | reduce | very significant reduction |
| COc1cc(-c2[o+]c3cc(O)cc(O)c3cc2O[C@@H]2O[C@H](CO)[C@@H](O)[C@H](O)[C@H]2O)cc(O)c1O [petunidin-3-O-β-D glucoside] | reduce | very significant reduction | no significant difference | significantly increased | not cytotoxic | reduce | very significant reduction | reduce | very significant reduction | inhibition trend | inhibition trend | reduce | very significant reduction |

— patent US20200368260A1, “USE OF BENZOPYRAN COMPOUND IN PREPARATION OF PRODUCT FOR REGULATING LIPID METABOLISM AND COMPOSITION OF THE SAME” (priority 2019, published 2020)
